In patent US20120301468A1, “ANTI-MN ANTIBODIES AND METHODS OF USING SAME” (BAYER HEALTHCARE LLC, priority 2005, published 2012):
Non-standard residues stand in square brackets, D forms with d. Residues, ends and D or L forms follow the SMILES beside them. *: point of attachment. Dolaproine = CO[C@@H]([C@@H]1CCCN1)[C@@H](C)C(=O)O; Dil = CC[C@H](C)[C@H](NC)[C@@H](CC(=O)O)OC; X1 = C[C@@H](N*)[C@@H](O)c1ccccc1; NMeV = CN[C@H](C(=O)O)C(C)C

Columns and labels:
[1] = tested on: HCT-15 multi-drug resistant (P-gp) CRC xenograft; assay: HCT-15 multi-drug resistant xenograft model; type: in vivo, NCr nu/nu mice; conditions: HCT-15 MDR model
Method: To examine the effect of 3ee9/MMAE in a multi-drug resistance model, female NCr nu/nu mice were implanted subcutaneously (s.c.) with 5×10^6 HCT-15 cells. HCT-15 is a multi-drug resistant (MDR) line that over-expresses P-glycoprotein (P-gp). […] 3ee9/MMAE, Taxol, and Gemcitabine were administered when mice had established tumors with mean weight of ˜150 mg. Gemcitabine, a pyrimidine analog that is not a P-gp substrate was used as a positive control.

[2] = tested on: HT-29 human CRC xenograft; assay: HT-29 subcutaneous xenograft model; type: in vivo, athymic NCr (nu/nu) mice; conditions: HT-29; for % Inhibition (1-T/D)*100 (Day 18) / Percent Regressions: Q4D × 3
Method: When tumors reached an average size of ˜120 mg (5 days), treatment was initiated. […] In addition, MMAE was assessed as a free drug at a dose of 0.1, 0.2 and 1 mg/kg. The 0.1 and 0.2 mg/Kg doses of MMAE represent equivalent amounts of this drug to those present on 5 and 10 mg/Kg 3ee9/MMAE respectively.
Anti-tumor effect of 3ee9/MMAE was also assessed in varying schedules, i.e., once a week dosing for total of two doses (Q7Dx2, FIG. 20) and a single dose at the time of staging (Q1Dx1, FIG. 21). In both schedules, 3ee9/MMAE was dosed at 0.625, 1.25, 2.5, 5 and 10 mg/kg.

Colo-205 CRC xenograft = assay: Colo-205 subcutaneous xenograft model; conditions: Colo-205
Text: The in vivo anti-tumor effect of 3ee9/MMAE was examined in 6 different human xenograft tumor models. These models were established through subcutaneous implantation of human tumor cells into female athymic NCr (nu/nu) mice (Taconic, N.Y.). The human tumor xenograft models evaluated included the MaTu human mammary carcinoma model, the HT-29 and Colo-205 human colo-rectal carcinoma (CRC) models, PC3MM2 prostate carcinoma model, the HCT-15 multi-drug resistant (P-gp) CRC model, and the MiaPaCa2 human pancreatic model. PBS was used as a vehicle, and dosing solutions were prepared fresh daily. The dosing volume was 0.1 mL/10 g (10 mL/kg).
The length and width of each tumor were measured using an electronic caliper 2-3 times per week, and tumor weights (mg) were calculated based on the formula of [length (mm)×width (mm)^2]/2. All data, including daily observations, obtained throughout the course of the study were documented in Anti-tumor Data Acquisition System (ADAS). […] Tumor growth inhibition (TGI) was calculated as (1-T/C)×100, where T=final tumor weights from a treated group after the last dose, and C=final tumor weights from the control group after the last dose. In addition, anti-tumor efficacy was measured as the incidence of responses (or responders or regressions) defined as tumors with ≦50% of their initial size. A minimum duration of 7 days is required for a response to be considered durable.
The anti-tumor activity of 3ee9/MMAE was next evaluated against human prostate (PC-3 mm2) and CRC (Colo-205) tumor xenografts. Female NCr nu/nu mice were implanted subcutaneously (s.c.) either with 5×10^6 PC3 mm2 or Colo-205 cells. Treatment was initiated when tumors were of an average size of approximately 125-150 mg. The general health of mice was monitored and recorded daily. Tumor dimensions and body weights were recorded twice a week starting with the first day of treatment.
In the PC3 mm2 and Colo-205 studies, 3ee9/MMAE was administered intravenously (i.v.) once every 4th day for a total of 3 injections (Q4Dx3) at doses of 1, 3, 10 and 30 mg/kg and 1.25, 2.5, 5 and 10 mg/kg, respectively.
The feasibility of using 3ee9/MMAE in conjunction with other cancer chemotherapeutic agents was investigated. Xeloda® is used as first line treatment of patients with metastatic colorectal carcinoma. The activity and tolerability of combined therapy using 3ee9/MMAE and Xeloda® was evaluated. 3ee9/MMAE was administered i.v. on a Q4Dx3 schedule and at dose levels of 1.25, 2.5 and 10 mg/kg. Xeloda® was administered orally once daily for 9 days at dose levels of 250 and 500 mg/kg.

MN [3] = target: T1, MN (Homo sapiens, UniProt Q16790); assay: Surface plasmon resonance (BIAcore) binding to MN protein; parameters: The MN protein represents the entire extra-cellular domain of the protein with a C-terminal histag for purification; His tag (C); made in house; host or cells: HKB-11 (mammalian cell line); conditions: read-out: kD for purified MN protein
Method: The binding interactions between MN protein and the antibodies of this invention were analyzed using surface plasmon resonance technology on a BIAcore 3000 instrument (BIAcore, Uppsala, Sweden). For the binding of full-length IgGs (1e4, 1aa1, and 3ee9), goat anti-human IgG Fc was covalently coupled to the CM5 biosensor chip at high density using a standard amine coupling kit (BIAcore, Uppsala, Sweden). A capture assay was then used to bind these IgG to the anti-human IgG Fc-immobilized surface, aiming for a 300 response unit BIAcore signal. […] After ligand binding, the flow rate was then increased to 25 μl/min and various concentrations of MN analyte (e.g., range of 50 nM to 1 nM) were flowed over the surface for 10 minutes such that the association phase could be monitored. […] The binding of Fabs to MN was similarly determined except that an anti-human-Fab IgG was immobilized onto the chip and used to capture the Fabs prior to the assessment of MN binding.
Binding interactions between HKB11-expressed human MN protein and human full-length anti-MN MAbs were analyzed using surface plasmon resonance technology on a BIAcore 3000 instrument (BIAcore, Uppsala, Sweden). […] After ligand binding, flow rate was increased to 25 ul/min and MN analyte (50 nM to 1 nM) was flowed over the surface for 10 min such that the association phase could be monitored. […]

MN [4] = target: T1, MN; assay: Immunoprecipitation of biotinylated cell surface proteins; type: binding; parameters: incubated with cell lysates of MN+ (Pc3 mm2) and MN− (DLD-1) cell lines that had been selectively labeled with biotin; endogenous in cells; host or cells: PC-3 mm2 (MN+); DLD-1 as the MN- control; conditions: biotin-labeled lysates of MN+ (Pc3 mm2) and MN− (DLD-1) cell lines
Method: To further explore specificity, various candidate antibodies including the antibody portion of 3ee9/MMAE (3ee9) and the reference antibody G250 were incubated with cell lysates of MN+ (Pc3 mm2) and MN− (DLD-1) cell lines that had been selectively labeled with biotin. Complexes between the antibodies and cellular proteins were immuno-precipitated and the co-precipitated antigens visualized using immunoblots developed with enzyme-linked streptavidin.

Nc1ccn([C@@H]2O[C@H](CO)[C@@H](O)C2(F)F)c(=O)n1 [Gemcitabine]
anti-tumor activity ([1]; 120 mg/kg, i.p., QDx10): highly active

CC[C@H](C)[C@@H]([C@@H](CC(=O)N1CCC[C@H]1[C@H](OC)[C@@H](C)C(=O)N[C@H](C)[C@@H](O)c1ccccc1)OC)N(C)C(=O)[C@@H](NC(=O)[C@@H](NC)C(C)C)C(C)C [MMAE, Monomethylauristatin E, reference compound] (H-[NMeV]V[Dil][Dolaproine]-X1)
% Inhibition (1-T/D)*100 (Day 18) ([2]; 0.1 mg/kg): 27%
Percent Regressions ([2]; 0.1 mg/kg): 0%
% Inhibition (1-T/D)*100 (Day 18) ([2]; 0.2 mg/kg): 60%
Percent Regressions ([2]; 0.2 mg/kg): 0%
% Inhibition (1-T/D)*100 (Day 18) ([2]; 1 mg/kg): Toxic
tumor responses ([2]; free drug): did not induce any tumor responses
effect in inhibiting growth ([2]; free drug 0.1 mg/kg): no significant effect
TGI ([2]; free drug 0.2 mg/kg): 60%
lethality ([2]; free drug 1 mg/kg): 50%
tolerability ([2]; free drug 1 mg/kg): considered toxic
tolerability ([2]; free drug 0.1 and 0.2 mg/kg): well tolerated with non-significant, minimal weight loss

CC(=O)O[C@H]1C(=O)[C@@]2(C)[C@H]([C@H](OC(=O)c3ccccc3)[C@]3(O)C[C@H](OC(=O)[C@H](O)[C@@H](NC(=O)c4ccccc4)c4ccccc4)C(C)=C1C3(C)C)[C@]1(OC(C)=O)CO[C@@H]1C[C@@H]2O [Taxol®]
anti-tumor effect [1]: failed to produce any significant anti-tumor effect

CCCCCOC(=O)Nc1nc(=O)n([C@@H]2O[C@H](C)[C@@H](O)[C@H]2O)cc1F [Xeloda, reference compound]
% Inhibition (T/C) (d 17) (Colo-205 CRC xenograft; 250 mg/kg/inj Q1D × 9 PO): 78%
% Regressions (Colo-205 CRC xenograft; 250 mg/kg/inj Q1D × 9 PO): 0%
% Weight Loss (d 17) (Colo-205 CRC xenograft; 250 mg/kg/inj Q1D × 9 PO): −0.5%
% Inhibition (T/C) (d 17) (Colo-205 CRC xenograft; 500 mg/kg/inj Q1D × 9 PO): 86.1%
% Regressions (Colo-205 CRC xenograft; 500 mg/kg/inj Q1D × 9 PO): 0%
% Weight Loss (d 17) (Colo-205 CRC xenograft; 500 mg/kg/inj Q1D × 9 PO): −5.6%
TGI (Colo-205 CRC xenograft; alone 250 mg/kg orally once daily for 9 days): 78%
TGI (Colo-205 CRC xenograft; alone 500 mg/kg orally once daily for 9 days): 86%
animals showing regressions (Colo-205 CRC xenograft; both dose groups (250 and 500 mg/kg)): zero

G250: MN antibody G250, a humanized IgG1 antibody, (Wilex), used as a reference [reference compound]
Kd (MN [3]): 5.3 nM
co-immunoprecipitated proteins (specificity) (MN [4]): selectively bound and co-immunoprecipitated with a single band of the same size as MN
